What was measured:
U251 cells = experiment: Mitochondrial membrane potential (Rhodamine 123); format: cell-based, human; settings: 20 μg/ml, 24 hr
Method: (A, B) Transmission electron microscopy analysis of the mitochondrial structure in U251cells treated with the DGAT1 inhibitor A-922500 (20 μg/ml) or DGAT2 inhibitor PF-06424439 (20 μg/ml) for 24 hr (A) or infected with shRNA-expressing lentivirus against DGAT1 for 48 hr (B). Scale bar, 500 nm. Mitochondria are indicated by arrows. (C) Representative fluorescence images of mitochondria in U251 cells treated with the DGAT1 inhibitor or DGAT2 inhibitor. Mitochondria were stained with MitoTracker Red. LDs were stained with BODIPY 493/503. Nuclei were stained with Hoechst 33342. Scale bar, 10 μm. (D) Representative fluorescence images of mitochondria in GBM cells infected with shRNA-expressing lentivirus against DGAT1 or DGAT2 for 48 hr. Mitochondria were stained with MitoTracker Red. LDs were stained with BODIPY 493/503. Nuclei were stained with Hoechst 33342. Scale bar, 10 μm. (E, F) Representative fluorescence image analysis of mitochondrial membrane potential stained with Rhodamine123 in U251 cells treated with the DGAT1 inhibitor A-922500 (20 μg/ml) for 24 hr or infected with shRNA-expressing lentivirus against DGAT1 for 48 hr. Nuclei were stained with Hoechst 33342. Scale bar, 10 μm. Rhodamine123 staining was quantified by ImageJ software in more than 100 cells. Statistical significance was determined by s t-test for inhibitor treatment or one-way ANOVA for shRNA knockdown. *P<0.0001. […]

BIP and CHOP = experiment: Western blot of ER stress markers; format: cell-based, human; settings: 20 μg/ml, 24 hours, GBM cells
Method: (A) Western blotting analysis of ER stress protein markers BIP and CHOP expression in GBM cells treated with the DGAT1 inhibitor A-922500 (20 μg/ml) for 24 hr. (B) Percentage of cell death in U251 cells treated with the ER stress pathway PERK inhibitor GSK2656157 or IRE1a inhibitor 4μ8C, alone or in combination with the DGAT1 inhibitor A-922500 (20 μg/ml) for 3 days. […] (C) Western blotting analysis of expression of ER stress protein markers BIP and CHOP in GBM cells infected with shRNA-expressing lentivirus against DGAT1 for 48 hr.
Western Blotting Cells were lysed by RIPA buffer (Cat #NC9484499; Fisher Scientific) containing protease inhibitor cocktail (Cat #11836170001; Roche) and phosphatase inhibitor (Cat #04906845001; Roche). The proteins were separated by using 12% SDS-PAGE, and transferred onto a Hybond ECL nitrocellulose membrane (Cat #RPN3032D; GE Healthcare).
After blocking for 1.5 h in 5% nonfat milk diluted by Tris-buffered saline containing 0.1% Tween 20, the membranes were incubated with various primary antibodies, followed by secondary antibodies conjugated to horseradish peroxidase.

[1] = system: GBM30-derived subcutaneous model; experiment: GBM30 subcutaneous xenograft model; format: in vivo, mice; settings: 120 mg/kg/day
Method: (A-C) The effects of the DGAT1 inhibitor […] (120 mg/kg/day, oral gavage, details in Methods) in U87/EGFRvIII cells (1×10^6 cells/mouse)- or GBM30-derived subcutaneous models (4×10^6 cells/mouse), as shown by tumor growth rate in A and final isolated tumor images and weights in B. Tumor tissues were analyzed for LD presence by IF (TIP47 staining) and CPT1A and cleaved Caspase 3 levels by IHC in C. LD numbers and protein levels in tumor tissues were quantified by ImageJ and averaged from 5 separate areas in each tumor. The results for protein levels were normalized to control tumors (mean±SEM). Statistical significance was determined by one-way ANOVA. * P<0.01 for comparison with control group. Scale bars, m for IF, 40 m for IHC.
It was next examined whether pharmacological inhibition of DGAT1 is effective in inhibiting GBM growth using U87/EGFRvIII and GBM30 xenograft models. Tumor cells were implanted in mice flanks and started treatment with DGAT1 inhibitor A-922500 (120 mg/kg/day) when tumor reached approximately 80 mm3.
Intracranial xenograft models were generated using female athymic nude (NCr-nu/nu) mice (6-8 weeks of age obtained from OSU Target Validation Shared Resource). U87EGFRvIII (1×10^6) cells infected with shDGAT1-, shDGAT2- or scramble shRNA-expressing lentivirus for 48 hr (suspended in 100 μl PBS) were implanted into mice flank to generate subcutaneous model. For intracranial xenograft model, U87EGFRvIII-luc (1×10^5) or GBM30-luc (1×10^5) cells infected with shDGAT1-, shDGAT2- or scramble shRNA-expressing lentivirus for 48 hours (suspended in 5 μl PBS) were implanted into mouse brains. Mice were observed until they became moribund, at which point they were sacrificed. For drug treatment, U87EGFRvIII (1×10^6 cells suspended in 100 μl PBS) or GBM30 cells (4×10^6 suspended in 100 μl PBS and then mixed with 100 μl matrigel) were implanted in mouse flanks. DGAT1 inhibitor A-922500 (120 mg/kg/day, oral gavage) was formulated by 1% Tween 80 in PBS and administrated to mice when tumor size reached approximately 80 mm^3.

O=C(Nc1ccccc1)Nc1ccc(-c2ccc(C(=O)[C@@H]3CCC[C@H]3C(=O)O)cc2)cc1 [A-922500]
mitochondria membrane potential (U251 cells): significantly reduced | protein levels of BIP and CHOP (ER stress) (BIP and CHOP): induces ER stress | protein levels of BIP and CHOP (ER stress) (BIP and CHOP; listed as A922500): increased | CPT1A expression in tumor tissues [1]: significantly increased CPT1A expression | LD formation in tumor tissues (TIP47) [1]: dramatically suppressed LD formation | cleaved caspase 3 levels in tumor tissues [1]: markedly elevated cleaved caspase 3 levels | tumor growth ([1]; oral gavage): significantly suppressed tumor growth | tumor weight ([1]; oral gavage): dramatic reduction in tumor weight | tumor growth ([1]; oral gavage, listed as A-900225): dramatically suppresses GBM tumor growth

— patent publication US20240148679A1, “METHODS AND COMPOSITIONS RELATED TO TREATMENT AND PREVENTION OF CANCER BY INHIBITION OF DGAT1 AND DGAT2” (Ohio State Innovation Foundation, priority 2019, published 2024)
